Results from article PMC8218751, “Visualizing Borrelia burgdorferi Infection Using a Small-Molecule Imaging Probe” (Journal of Clinical Microbiology, 2021).

Experiments:
[1] = biological target: T1, B. burgdorferi HtpG (Borreliella burgdorferi, UniProt P42555); assay: biochemical; format: binding, Borrelia burgdorferi
T1 construct: His6 (N); made in house; host or cells: E. coli BL21(DE3)
Description: Escherichia coli (strain BL21/DE3) genomic DNA was isolated from a lab culture generated from the cloning/expression bacterium (ThermoFisher catalog no. EC0114) by overnight proteinase K digestion at 56°C, high-salt clarification, and ethanol precipitation. […] Human Hsp90-alpha sequences were derived from cDNA generated from total mRNA of the human breast epithelial line, MCF10A. HtpG DNA sequences were PCR cloned from these DNAs using primers designed to allow in-frame cloning with GFP in the isopropyl-β-D-thiogalactopyranoside (IPTG)-inducible bacterial expression vector. […] Fusion protein cloning was done using the ligation-independent cloning procedure via single-nucleotide T4 DNA polymerase treatment of vector and purified PCR products followed by annealing of complementary single-strand ends before transformation into DH5 E. coli. […] Fusion protein synthesis was induced by incubation with 1 mM IPTG or autoinduction ([17]).
γ-linked ATP Sepharose matrix was generated as described previously by the Haystead lab ([18]). […] The clarified lysate was added to a column containing ATP-bound Sepharose. The column was washed with low-salt buffer (150 mM NaCl, 25 mM HEPES, pH 7.4, 1 mM dithiothreitol [DTT], and 60 mM MgCl2), followed by high-salt buffer (1 M NaCl, 25 mM HEPES, pH 7.4, 1 mM DTT, 0.1% IGEPAL, and 60 mM MgCl2) and once again low-salt buffer to remove unbound protein. Next, the resin with bound proteins (50 μl) was transferred to a 0.2-μm polyvinylidene fluoride filter 96-well plate (Corning) sitting on top of a black flat-bottomed 96-well catch plate (Corning). […] The eluted proteins were measured in a fluorescent plate reader to detect the GFP.
Subtle single amino acid differences are present within the catalytic clefts of these proteins, especially between residues that contact the nucleotide. […] We therefore reasoned that these differences may be sufficient to design small molecules that can similarly discriminate HtpG of stealth organisms. To test this hypothesis, we utilized a fluorescent-linked enzyme chemoproteomic strategy (FLECS) assay to test known Hsp90 inhibitors ([18]) for binding to various HtpG constructs. First, we cloned and expressed in E. coli recombinant N-terminal GFP-fusion forms of HtpG from B. burgdorferi, E. coli, and Treponema denticola, the oral spirochete, as well as human Hsp90. We then incubated lysate after protein expression with an ATP Sepharose resin to enable binding. In this assay, ATP is tethered to Sepharose beads via its γ-phosphate, enabling the nucleotide to bind to ATP binding proteins such as Hsp90 and HtpG, but is nonhydrolyzable ([24]). After proteins are bound to the ATP Sepharose resin, small molecules with affinity for the ATP binding site will elute the GFP-fusion protein, which can readily be detected and quantified on a plate fluorometer.
These compounds were selected for testing based on their known binding to human Hsp90 ([25], [26]).

[2] = test system: B. burgdorferi; assay: In vivo mouse model of B. burgdorferi infection, imaging of tissue sections; design: species or system mice; conditions: 25 nmol via tail vein, 3 weeks after infection, 6 h postinjection; ear, tibiotarsal joint, spleen
Description: Ten-micrometer sections of frozen tissues were incubated with WGA (Biotium catalog number 29077) for 1 h in PBS. Tissues were washed and fixed with 3:1 methanol to acetic acid. Slides were incubated with FITC-conjugated B. burgdorferi polyclonal antibody (ThermoFisher, catalog number PA1-73005) for 1 h at room temperature. Noninjected or infected tissues were washed and incubated with 1 μM HS-198 for 30 min as control, and injected tissues were not incubated with HS-198. Slides were washed and mounted with DAPI Prolong Gold. Image studies were performed on a Zeiss Axio Imager upright microscope, using 63× oil objective, and visible light for DIC imaging and excitation at 405, 488, or 633 nm for detection of DAPI, FITC, or HS-198, respectively. Images were analyzed using FIJI software.
Seven C3H/HeN (Charles River Laboratories) female mice, 36 to 42 days old, were anesthetized with isoflurane gas, 1.5 to 2%. Mice were infected with 500,000 logarithmic-stage B. burgdorferi strain N40 spirochetes in <0.5 ml sterile saline by subcutaneous injection in the nape of the neck via 25-gauge needle. The N40 strain was selected for its infection kinetics and inflammatory pathology. The strain was obtained from an archival stock acquired by the Philip lab and was maintained exactly like strain B31 ([21]). […]

T1 sequence (P42555 whole entry): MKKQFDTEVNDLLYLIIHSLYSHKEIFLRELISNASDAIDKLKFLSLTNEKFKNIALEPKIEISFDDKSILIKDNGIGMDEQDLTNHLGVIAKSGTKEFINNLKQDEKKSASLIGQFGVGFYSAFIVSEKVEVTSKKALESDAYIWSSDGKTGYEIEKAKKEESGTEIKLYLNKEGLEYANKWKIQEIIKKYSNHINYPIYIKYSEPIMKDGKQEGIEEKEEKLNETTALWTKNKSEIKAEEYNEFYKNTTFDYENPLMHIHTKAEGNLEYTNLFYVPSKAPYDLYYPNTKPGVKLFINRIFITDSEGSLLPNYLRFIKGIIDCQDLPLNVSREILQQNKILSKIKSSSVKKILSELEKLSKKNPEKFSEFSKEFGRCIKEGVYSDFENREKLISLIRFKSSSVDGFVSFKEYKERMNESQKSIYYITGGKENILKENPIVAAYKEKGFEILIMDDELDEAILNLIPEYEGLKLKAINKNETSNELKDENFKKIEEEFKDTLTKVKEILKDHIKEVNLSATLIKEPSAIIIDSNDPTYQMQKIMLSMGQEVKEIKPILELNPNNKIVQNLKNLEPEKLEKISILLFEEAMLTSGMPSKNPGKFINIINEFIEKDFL

Compound: Cc1nn(-c2ccc(C(=O)N(C)C)c(NCCCOCCOCCOCCOCCOCCCNCc3ccc(C(=C\C=C4/N(CCCCS(=O)(=O)O)c5ccccc5C4(C)C)/C=C/C4=[N+](CCCCS(=O)(=O)[O-])c5ccccc5C4(C)C)cc3)c2)c2c1C(=O)CC(C)(C)C2 [HS-198]
- Kd [1]: 5.6 ± 3 µM
- Elution of B. burgdorferi GFP-HtpG from ATP Sepharose beads ([1]; in words): selectively eluted the bound fusion protein
- Detection of B. burgdorferi in tissue sections of infected mice [2]: localization to sites of B. burgdorferi infection in mice
